This is an account of results in patent US11478451B1, “Macrocyclic chlorine substituted indole derivatives” (Bayer Aktiengesellschaft, priority 2017, dated 2022).

Counter-ions that a name gives are not always drawn. Like-named read-outs stand apart in the source and are kept apart here.

For data set [1] the following is noted: the molecule shown is the open-chain precursor, crosslinker bond, 11-membered ring, (Z)-1,4-dichlorobut-2-ene/Cs2CO3/NaI, MeCN.
Data set [2] concerns the target MCL-1 (Homo sapiens (Human), UniProt Q07820, K194A/K197A/R201A). As to the kind of experiment: Protein-protein interaction assay MCL-1/Noxa BH3 peptide (MCL-1 assay), TR-FRET. In kind it is binding. To be noted: IC50, median; MCL-1/Noxa BH3 TR-FRET. The method, then:
The dose-dependent inhibition by the compounds described in this invention of the interaction between MCL-1 and the BH3 domain of Noxa (both human) was determined using a steady state binding competition assay with time-resolved fluorescence energy transfer (TR-FRET) readout. […] The MBP-MCL-1 was purchased from Beryllium (Bedford, Mass., USA). The expression and purification of this protein construct has been described elsewhere (DOI:10.1371/journal.pone.0125010). The Noxa BH3-derived peptide can be obtained from e.g. Biosyntan (Berlin, Germany), 50812.1.
For that, 100-fold concentrated DMSO solutions were prepared by serial dilutions (1:3.4) of a 2 mM stock solution in a clear, 384-well microtiter plate (Greiner Bio-One, Frickenhausen, Germany). From there, 50 nl were transferred in a dark test plate (Greiner Bio-One, Frickenhausen, Germany). […] This was followed by a 10-minute incubation step at 22° C. for pre-equilibration of the putative complex between MBP-MCL-1 and the compounds.
The mixture was incubated in the dark for one hour at 22° C. and then overnight at 4° C.
The resulting data (ratio) were normalized, taking 0% inhibition as the mean value of control measurements (usually 32 data points) where all reagents were included. In this case 50 nl DMSO were used instead of compounds. […] IC50 values were determined by regression analysis based on a 4 parameter equation (minimum, maximum, IC50, Hill; Y=Max+(Min−Max)/(1+(X/IC50)^Hill) using the Screener Software (Genedata).

Data set [3] concerns the target MCL1 protein (Homo sapiens (Human), UniProt Q07820). In words: PIxEL: protein-protein interaction in permeabilized cells by ELISA (MCL1/biotin-BIM BH3 peptide, RKO cells). Type of data set: cell-based. To be noted: IC50, median, serum free. The method, then: PIxEL: Protein-Protein Interaction in Permeabilized Cells by ELISA
Most MCL1 protein molecules are localized at the mitochondria outer membrane and sequester pro-apoptotic proteins through binding of their BCL2 homology domain 3 (BH3 domain). MEB buffer (150 mM mannitol, 10 mM HEPES pH 7.5, 50 mM KCl, 20 μM EDTA, 20 μM EGTA, 5 mM potassium succinate, 0.1% protease-free BSA (SIGMA) with low dose digitonin (0.002%) permeabilizes plasma membrane while leaves live mitochondria, where MCL1 maintains its native localization and conformation. Unlike biophysical assays (e.g. TR-FRET) that use truncated recombinant MCL1 protein, this assay uses full length endogenous MCL1 protein at mitochondria outer membrane. It measures the interaction between MCL1 protein and biotinylated BIM BH3 peptide. Compounds can compete with BIM BH3 peptide to bind to MCL1 protein.
On day 1, RKO colon cancer cell line cells were plated at 0.8 million cells/ml, 100 μl/well in 96-well flat bottom TC plates (Corning). MCL1 antibody (Santa Cruz sc-12756) were diluted at 200 fold (final concentration 1 μg/ml) in carbonate buffer (Thermo Fisher Scientific, pH 9.6), and 50 μl of diluted antibody was added to each well of high bind ELISA plates ([…]). Each plate was tapped to make sure liquid covering entire bottom of wells and incubate at 37° C. overnight.
On the second day, MCL1 antibody was washed from ELISA plate. 250 μl Odyssey® Blocking Buffer (PBS) (Li-Cor) was added to each well, incubated at room temperature for at least 1 hour, then washed once with 250 μl 1×PBST. Plates with RKO cells were gently washed once with 100 μl/well PBS, once with 100 μl/well MEB buffer without digitonin, then 100 μl of MEB buffer with 0.002% digitonin was gently added to each well. Compounds were added with HP Tecan compound dispenser in 3-fold dilution series, highest dose 30 μM, 10-dose per compound in quadruplicates. Biotin-BIM peptide (synthesized by 21st Century) was added with HP Tecan compound dispenser at 0.2 μM immediately after the addition of compounds. Plates were rocked for 1 hour at room temperature. Then MEB buffer was aspirated and 50 μl of CHAPS buffer (50 mM Tris-Cl, pH 7.4, 150 mM NaCl, 1% CHAPS, 1 mM EDTA, 1 mM EGTA, cOmplete protease inhibitors (Roche), PhosSTOP (Roche)) was added to each well. Plates were rocked for 1 hour at 4° C., then 45 μl cell lysate from each well were transferred to ELISA plates coated with MCL1 antibody. Plates were incubated overnight in the cold room with rocking.
On the third day, ELISA plates were washed once with 250 μl 1×PBST. Streptavidin-poly-HRP (Thermo Fisher Scientific) was diluted to 20 ng/ml in Odyssey blocking buffer plus 0.05% Triton-100, and 100 μl was added to each well of the ELISA plate. Plates were incubated at RT from 1 hour with rocking, then washed with 100 μL 1×PBST for 3 times. Each SuperSignal ELISA Femto Maximum Sensitivity substrate was added to a 50-ml tube and mixed, then 100 μl of mixed substrate was added to each well. Plates were shaken for 1 minute then luminescence was measured by Envision plate reader […]. Signal of each well were normalized by no-compound control and no-cell control. IC50 was calculated using Graphic Pad PRISM software.

For data set [4], the system named is SUDHL5 cells. As to the kind of experiment: Antiproliferation assay (CellTiter-Glo, 72 h), SUDHL5. Type of data set: cell-based. To be noted: IC50, median, SUDHL5, 72 h, read-out: Antiproli SUDHL5 [M] (median). In outline:
(§1)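 Cells were exposed to compounds for 72 h at 37 °C in a humidified incubator, with rim wells excluded. Viability was read by CellTiter-Glo luminescence after a 10 min incubation. A parallel day 0 plate, read the same way, gave the time-zero baseline.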

Data set [5] has as its system SUDHL5 cells. In words: Induction of cytotoxicity (CellTiter-Glo, 5 h), SUDHL5. To be noted: SUDHL5, 5 h.
Experimental: (§8) Therefore, cytotoxicity assays were run in parallel in SUDHL5 and SUDHL10 cells.
(§9) The different cell lines were plated in culture medium (RPMI 1640 [GIBCO #22400-089] supplemented with 10% Fetal Bovine Serum) at a density of 3,300 cells in 30 μL/well in a sterile, solid black, flat bottom, polystyrene, TC-treated 384-well microplate (Corning #3571) using Multidrop Combi Reagent Dispenser. As a control, medium without cells was also added to the plate. Cells were incubated in a humidified incubator at 37° C. overnight. […] Rim wells were excluded. The cells were incubated for 5 h hours in a humidified incubator at 37° C. After this incubation, 30 μL of CellTiter-Glo® Luminescent Cell Viability reagent (Promega, G7573) was added to each well using the Multidrop Combi Reagent Dispenser, followed by 15 min incubation on a shaker at room temperature. Finally, luminescence was read at 0.1 ms, with a gain of 3000 using the PHERAstar FS microplate reader (BMG Labtech).
Data set [6] deals with AMO-1 cells. In words: Antiproliferation assay (CellTiter-Glo, 72 h), AMO-1. Type of data set: cell-based. To be noted: IC50, median, AMO-1, 72 h, read-out: Antiproli AMO-1 [M] median. In outline: as §1
On the technique in general: In ATP-based viability assays light output follows the ATP content of the culture.

Data set [7] has as its system SUDHL10 cells. As to the kind of experiment: Induction of caspase-3/7 activity (Caspase-Glo 3/7), SUDHL10. In kind it is cell-based. The settings on record: EC50, median; SUDHL10, 3 h treatment; listed as 082. The method in brief:
(§2)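 DLBCL lines were exposed to test compounds for 3 h at 37 °C in a humidified incubator, then caspase-3/7 activity was measured with Caspase-Glo 3/7 reagent. Medium-only background was subtracted from all readings.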

The subject of data set [8] is SUDHL5 cells. As to the kind of experiment: Induction of caspase-3/7 activity (Caspase-Glo 3/7), SUDHL5. In kind it is cell-based. The settings on record: EC50, median, SUDHL5, 3 h treatment. In outline: as §2
Data set [9] concerns SUDHL10 cells. As to the kind of experiment: Induction of cytotoxicity (CellTiter-Glo, 5 h), SUDHL10. To be noted: Homo sapiens, SU-DHL10, 5 h, read-out: Cytotox SUDHL10 [M] (median), IC50, median; SUDHL10, 5 h.
Experimental: as §8, §9
The test system of data set [10] is MV-4-11 cells. As to the kind of experiment: Antiproliferation assay (CellTiter-Glo, 72 h), MV-4-11. To be noted: IC50, median; MV-4-11, 72 h; read-out: Antiproli MV-4-11 [M] median. Type of data set: cell-based. The protocol: (§3) Assessment of the Anti-Proliferative Effect of Compounds in Different Cell Lines
(§4) The impact of compounds on the proliferation of different cell lines was assessed using the CellTiter-Glo® Luminescent Cell Viability reagent from Promega (G7573).
(§5) In parallel, cells were plated in a reference (day 0) plate for time zero determination.
(§6) Rim wells were excluded. The cells were incubated for 72 h hours in a humidified incubator at 37° C. The day 0 plate was measured by adding 30 μL/well of CTG solution (CellTiter-Glo® Luminescent Cell Viability reagent, Promega G7573) to time zero wells in the reference plate followed by a 10 minutes incubation and luminescence reading at 0.1 ms. using the PHERAstar FS microplate reader (BMG Labtech).
(§7) After 72 h incubation, the treated plates were measured in the same way as the day 0 plate mentioned above.

The test system of data set [11] is HMC-1-8 cells. In words: Antiproliferation assay (CellTiter-Glo, 72 h), HMC-1-8. In kind it is cell-based. To be noted: IC50, median; HMC-1-8, 72 h; read-out: Antiproli HMC-1-8 [M] median. The method in brief:
as §1

The test system of data set [12] is DMS-114 cells. As to the kind of experiment: Antiproliferation assay (CellTiter-Glo, 72 h), DMS-114. In kind it is cell-based. The settings on record: Homo sapiens, DMS-114, 72 h; read-out: Antiproli DMS-114 [M] median. The protocol: as §3, §4, §5, §6, §7
In data set [13] the test system is SNU-389 cells. In words: Antiproliferation assay (CellTiter-Glo, 72 h), SNU-389. Type of data set: cell-based. To be noted: 72 h; read-out: Antiproli SNU-389 [M] median. The method, then:
as §3, §4, §5, §6, §7

The mark [14] stands for this setting: Homo sapiens, SU-DHL-5, 5 h, read-out: Cytotox SUDHL5 [M] (median), IC50, median.

Sequence of MCL1 protein (Q07820 whole entry, the tested form may be a part): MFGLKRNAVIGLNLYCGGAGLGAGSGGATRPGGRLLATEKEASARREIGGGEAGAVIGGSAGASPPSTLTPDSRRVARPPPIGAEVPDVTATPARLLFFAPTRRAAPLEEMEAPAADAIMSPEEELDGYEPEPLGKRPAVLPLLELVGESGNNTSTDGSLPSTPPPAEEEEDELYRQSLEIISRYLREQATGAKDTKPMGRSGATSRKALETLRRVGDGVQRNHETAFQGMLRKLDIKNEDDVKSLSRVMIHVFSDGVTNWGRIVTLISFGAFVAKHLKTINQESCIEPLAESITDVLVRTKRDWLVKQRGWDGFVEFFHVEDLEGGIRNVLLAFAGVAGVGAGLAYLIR
Sequence of MCL-1 (Q07820 whole entry K194A/K197A/R201A, looked up, the tested form may be a part): as the sequence (Q07820 whole entry, the tested form may be a part) above, with K194A, K197A, R201A counted along it

In data set [1] (77.0 mM, […]), `CCOC(=O)c1[nH]c2c(-c3c(CO)nn(C)c3CC)c(Cl)ccc2c1CCCOc1cccc2cc(F)ccc12` gave a ring closure, isolated yield of 82%.
Consider `CCOC(=O)c1[nH]c2c(-c3c(CO)nn(CCCO[Si](C)(C)C(C)(C)C)c3C)c(Cl)ccc2c1CCCOc1cccc2ccccc12`, for which, in [1] (31.9 mM, 70.0 °C), the ring closure, isolated yield turned out to be 68%.
Turning to `Cc1c2c(nn1C)COCC1CC1Cn1c(C(=O)O)c(CCCOc3cccc4ccccc34)c3ccc(Cl)c-2c31` (single isomer, unassigned) [Example 82, 3-chloro-4,5-dimethyl-14-{3-[(naphthalen-1-yl)oxy]propyl}-5,7,9a,10,10a,11-hexahydro-9H-cyclopropa[3,4]pyrazolo[4′,3′:9,10][1,6]oxazacycloundecino[8,7,6-hi]indole-13-carboxylic acid], the IC50 was determined as 1.6 nM in [2]; 225 nM in [3]; 8.1e-07 M in [4] (Homo sapiens, SU-DHL-5, 72 h); 4.9e-07 M in data set [5] (setting [14]); 2.9e-06 M in data set [6] (listed as 082). The figures for the EC50 in data set [7] and in data set [8] (listed as 082) were 1100 nM and 490 nM, respectively.
Turning to `Cc1c2c(nn1CCCN1CCN(C)CC1)COCCCCn1c(C(=O)O)c(CCCOc3cccc4ccccc34)c3ccc(Cl)c-2c31` (single isomer, unassigned; enantiomer 1) [Example 49, (+)-4-chloro-3-methyl-2-[3-(4-methylpiperazin-1-yl)propyl]-7-{3-[(naphthalen-1-yl)oxy]propyl}-2,10,11,12,13,15-hexahydropyrazolo[4′,3′:9,10][1,6]oxazacycloundecino[8,7,6-hi]indole-8-carboxylic acid (Enantiomer 1)], the IC50 in [2] amounted to 1.7 nM; in [3], 436 nM; in data set [9] it was 1e-06 M; in [6] (Homo sapiens, AMO1, 72 h) it was 1.5e-06 M.
`Cc1c2c(nn1C)CN(C)CCCCn1c(C(=O)O)c(CCCOc3cccc4cc(F)ccc34)c3ccc(Cl)c-2c31` (single isomer, unassigned; enantiomer 2) [Example 32, (−)-4-chloro-7-{3-[(6-fluoronaphthalen-1-yl)oxy]propyl}-2,3,14-trimethyl-10,11,12,13,14,15-hexahydro-2H-pyrazolo[3′,4′:8,9][1,6]diazacycloundecino[10,11,1-hi]indole-8-carboxylic acid-N-ethylethanamine salt (Enantiomer 2)]: the IC50 in data set [2] amounted to 26 nM; in data set [3], 19100 nM; in [4] it was 6e-06 M; in data set [5] (read-out: Cytotox SUDHL5 [M] (median), IC50, median), 9.3e-06 M; in data set [10], 1.4e-05 M.
As for `Cc1c2c(nn1C)COCC1CC1Cn1c(C(=O)O)c(CCCOc3cccc4ccccc34)c3ccc(Cl)c-2c31` (single isomer, unassigned; stereoisomer 1) [Example 65, (9aS,10aR or 9aR,10aS)-3-chloro-4,5-dimethyl-14-{3-[(naphthalen-1-yl)oxy]propyl}-5,7,9a,10,10a,11-hexahydro-9H-cyclopropa[3,4]pyrazolo[4′,3′:9,10][1,6]oxazacycloundecino-[8,7,6-hi]indole-13-carboxylic acid—Stereoisomer 1], the IC50 in data set [2] came out at 2.7 nM; in [3] it was 752 nM; in data set [4] (Homo sapiens, SU-DHL-5, 72 h) it was 2.7e-07 M; in [5] (setting [14]), 3.3e-07 M; in data set [6] (Homo sapiens, AMO1, 72 h), 6e-07 M; in [11], 2.5e-06 M. In addition, the 50% effective concentration (EC50) – broadly, the concentration giving half of the maximal effect – in data set [8] (Homo sapiens, SU-DHL-5, 3 h) turned out to be 270 nM.
As for `Cc1c2c(nn1C)COCC1CC1Cn1c(C(=O)O)c(CCCOc3cccc4ccccc34)c3ccc(Cl)c-2c31` (single isomer, unassigned; stereoisomer 2) [Example 66, (9aR,10aS or 9aS,10aR)-3-chloro-4,5-dimethyl-14-{3-[(naphthalen-1-yl)oxy]propyl}-5,7,9a,10,10a,11-hexahydro-9H-cyclopropa[3,4]pyrazolo[4′,3′:9,10][1,6]oxazacycloundecino-[8,7,6-hi]indole-13-carboxylic acid—Stereoisomer 2], the IC50 came out at 3.15e-07 M in data set [12]; 1740 nM in data set [3]; 1.4e-07 M in data set [9]; 5.76e-07 M in data set [13]; 1e-06 M in data set [11].
